Measured values: patent US20200024574A1, “STEM CELL-DERIVED ASTROCYTES, METHODS OF MAKING AND METHODS OF USE” (MEMORIAL SLOAN-KETTERING CANCER CENTER, priority 2017, published 2020)
“Also recorded” adds a separate entry of the source.

Legend:
Type in all cases: cell-based, human
[1] = test system: LTNSCs; experiment: Differentiation of LTNSCs or neural rosettes (no NFIA induction) in media containing gliogenic molecules; settings: short term, 14 days, no NFIA induction (FIG. 2B)
Method: These cells were also TUJ1 negative implying their homogenous nature of being nearly 100% neural stem cells (FIG. 2A). […] In the FBS condition, the expression of gliogenic factors was assessed and expression of SOX9 and NFIA was more enriched when cultured with FBS compared to the other treatments (FIG. 3).
(§1) For immunohistochemistry, cells were fixed in PBS containing 4% paraformaldehyde (EMS) for 10 minutes and permeabilized using PBS with 0.5% Triton-X for 5 minutes and stored in PBS with 0.2% Tween-20. The blocking solution contained 5% donkey serum in PBS with 0.2% Tween-20. Primary antibodies were diluted in the blocking solution and typically incubated overnight at 4 C. Secondary antibodies conjugated to Alexa 488, Alexa 555 or Alexa 647 (Thermo) were added to the cells and incubated for 30 minutes. Nuclei were identified by staining the cells with 4′,6-diamidino-2-phenylindole (DAPI, Thermo).

[2] = test system: NFIA-induced LTNSCs; experiment: Astrocyte differentiation of NFIA-induced LTNSCs after doxycycline removal with glial differentiation factors; settings: for expression of GFAP after removing the expression of NFIA: NFIA exposed cells, especially in the absence of FGF2 (FIG. 4C)
Method: Typically, regionally patterned neural stem cells are infected with lentiviral particles containing FUW-NFIA and FUW-M2-rtTA and induced with doxycycline (dox) one day after infection. Cells are kept in dox media for a minimum of 5 days and then switched to the astrocyte induction media (N2 media with 10 ng/ml HB-EGF (R&D Systems) and 10 ng/ml Leukemia inhibitory factor (Peprotech)) without dox for a minimum of 5 days. Glial progenitors and astrocytes can be isolated using CD44.
as §1

[3] = test system: neurogenic NSCs; experiment: Cell cycle analysis by FACS on NSCs treated with TGFβ1; settings: TGFβ1 for 48 hours, FACS (FIG. 12L)
Method: Cells were dissociated nuclei were isolated for cell cycle analysis. Propidium Iodine (250 ng/ml) was added to the cells and analyzed by FACS. A minimum of 10,000 events was analyzed per condition. Data acquired was imported and analyzed by the Flowjo software.

[4] = test system: neurogenic NSCs; experiment: Immunofluorescence for NFIA and GFAP after TGFβ treatment followed by LIF medium; settings: TGFβ followed by LIF-containing medium for 2 weeks (FIG. 12M)
Method: as §1

[5] = test system: neurogenic NSCs; experiment: Western blot analysis of NFIA in NSCs treated with TGFβ1; settings: TGFβ1 for 7 days, Western blot (FIG. 12K)

LIF: leukemia inhibitory factor, glial-promoting factor
fate of LTNSCs: neurons (TUJ1/βIII-Tubulin) versus GFAP+ astrocytes [1]: became neurons rather than GFAP+ astrocytes; also recorded: increased expression of the neuronal marker TUJ1 rather than the astrocyte marker GFAP | GFAP expression (quantitative PCR) ([2]; 5 days dox then dox removal, +LIF versus +EGF/FGF2 (FIG. 10E)): strongly induced | efficiency of astrocyte differentiation (GFAP+ cells, AQP4-H2B-GFP reporter) after dox removal ([2]; LIF compared with BMP4 or FBS): most efficient in generating GFAP+ cells and activating the AQP4-H2B-GFP reporter | expression of GFAP after removing the expression of NFIA [2]: enhanced the expression of GFAP

TGFβ1: upstream activator of NFIA; transforming growth factor beta
cells in the G1 phase of the cell cycle [3]: enriched for cells in the G1 phase of the cell cycle | appearance of GFAP+ cells [4]: resulted in the appearance of GFAP+ cells | expression of NFIA [5]: induced the expression of NFIA

B1: BMP4: gliogenic molecule, bone morphogenetic protein (protein, UniProt P12644 293-408, looked up)
Bone morphogenetic protein 4: SPKHHSQRARKKNKNCRRHSLYVDFSDVGWNDWIVAPPGYQAFYCHGDCPFPLADHLNSTNHAIVQTLVNSVNSSIPKACCVPTELSAISMLYLDEYDKVVLKNYQEMVVEGCGCR
fate of LTNSCs: neurons (TUJ1/βIII-Tubulin) versus GFAP+ astrocytes [1]: became neurons rather than GFAP+ astrocytes; also recorded: increased expression of the neuronal marker TUJ1 rather than the astrocyte marker GFAP | expression of GFAP after removing the expression of NFIA [2]: enhanced the expression of GFAP
